Columns and labels:
primary motor neurons = assay: MTS assay of cell survival under oxidative stress (hydrogen peroxide); format: cell-based, mouse; conditions: zonisamide 1 hour before 100 μmol/L hydrogen peroxide for 24 hours; dose-dependent
Method: Cell survival rate was assessed by MTS assay (CellTiter 96 Aqueous One Solution Cell Proliferation Assay, Promega), which measured the activity of mitochondrial reductase. Primary cultured motor neurons were cultured in Sumilon neuron culture medium for 24 hours, and the medium was then exchanged to DMEM/F12 supplemented with 0.5% FBS and cultured for 24 hours. Zonisamide was added at various concentrations for 1 hour and 100 μmol/L hydrogen peroxide was then added for 24 hours. The cells were incubated with MTS reagent for 2 hours. MTS signal was quantified on a microplate reader (PowerScan HT, DS PharmaBiomedical). The group of cells treated without hydrogen peroxide was used as a control for evaluating MTS signal.

[1] = tested on: Bdnf, Ngf, Ntf4, Ntrk1, Ntrk2, Map2, Mapt, Gap43; assay: Mouse sciatic nerve autologous transplantation model: mRNA in sciatic nerve segment; format: in vivo; conditions: sciatic nerve segment distal to the distal transection site, 8 weeks after surgery
Text: Adult male C57BL/6J mice (8 weeks old; 19.5-22.0 g) were purchased from Charles River. The mice were anesthetized with isoflurane and underwent gluteal muscle incision under a sterile condition to expose the sciatic nerve in the left leg. The sciatic nerve was cut at the following two sites (1) and (2): (1) the site 3 mm distal to the first bifurcation of biceps femoris (hereinafter referred to as proximal transection site) (2) the site 3 mm distal to the proximal transection site (hereinafter referred to as distal transection site) The excised nerve segment with a length of 3 mm was confirmed to be completely cut at the two sites. The perineurium was sutured with nylon thread (10-0 black) at the proximal transection site and the distal transection site under a microscope. The remaining thread was used as a marker for finding the nerve transection site in the sacrifice of the mice. In order to reduce DMSO toxicity, a solution of 60 mg/mL zonisamide in 100% DMSO was prepared and the solution was diluted in olive oil to give a solution of 3 mg/mL zonisamide in 5% DMSO. The control solution (5% DMSO) or zonisamide (3 mg/mL×about 0.2 mL) at 30 mg/kg/day was administered to the stomach using a disposable probe needle (flexible type, Fuchigami) once a day for 1 to 8 weeks from the end of surgery until sacrifice. Myelin sheath formation in the sciatic nerve was analyzed in six mice in each group. One week after the sciatic nerve autologous transplantation, the sciatic nerve was transected at “the proximal transection site” and “the site 3 mm distal to the distal transection site” to excise a nerve segment with a length of 6 mm. Subsequently, the nerve segment was fixed in 2% paraformaldehyde/2.5% glutaraldehyde in 0.2 mol/L sodium cacodylate buffer pH 7.3 overnight, treated with 2% osmium tetroxide for 3 hours, and dehydrated in ethanol. After epon embedding, a semithin section (with a thickness of 1 μm) was cut at the position 0.7 mm distal to the distal transection site, stained with alkaline Toluidine blue (Sigma), and examined under a microscope (FSX100, Olympus). The number and area of myelinated axons in the sciatic nerve were manually measured using ImageJ software in a blinded fashion. Eight weeks after sciatic nerve autologous transplantation, the entire gastrocnemius muscle and a sciatic nerve segment between the distal transection site and the site 3 mm distal to the distal transection site were isolated for total RNA extraction. Similar sciatic nerve segment was also isolated from the hindlimb without transected sciatic nerve. The mRNA expression levels of Bdnf, Ngf, Ntf4, Ntrk1, Ntrk2, Map2, Mapt, Gap43, Chrne, Colq, and Rapsn were quantified in a manner similar to Example 5.

[2] = tested on: Bdnf, Ngf, Ntf4, Ntrk1, Ntrk2, Map2, Mapt, and Gap43; assay: Real-time RT-PCR of genes associated with neurite outgrowth in primary motor neurons; format: cell-based, mouse
Text: Total RNA was isolated, using Trizol (Thermo Fisher Scientific), from primary motor neurons cultured with 0, 1, or 10 μmol/L zonisamide. Similarly, total RNA was isolated from sciatic nerve segments with a length of 3 mm or from tibialis anterior muscle. Single-stranded cDNA was synthesized using ReverTra Ace (Toyobo). The mRNA expression levels of Bdnf, Ngf, Ntf4, Ntrk1, Ntrk2, Map2, Mapt, and Gap43 were quantified using LightCycler 480 Real-Time PCR (Roche) and SYBR Green (Takara). The mRNA levels were normalized with the expression level of Gapdh.

JNK1/2/3 = JNK1/2/3 phosphorylation in NSC34 cells; format: cell-based, mouse
Chrne, Colq, and Rapsn = assay: Mouse sciatic nerve autologous transplantation model: mRNA in gastrocnemius muscle; format: in vivo; conditions: 8 weeks after surgery, 30 mg/kg/day
Text: Adult male C57BL/6J mice (8 weeks old; 19.5-22.0 g) were purchased from Charles River. The mice were anesthetized with isoflurane and underwent gluteal muscle incision under a sterile condition to expose the sciatic nerve in the left leg. The sciatic nerve was cut at the following two sites (1) and (2): (1) the site 3 mm distal to the first bifurcation of biceps femoris (hereinafter referred to as proximal transection site) (2) the site 3 mm distal to the proximal transection site (hereinafter referred to as distal transection site) The excised nerve segment with a length of 3 mm was confirmed to be completely cut at the two sites. The perineurium was sutured with nylon thread (10-0 black) at the proximal transection site and the distal transection site under a microscope. The remaining thread was used as a marker for finding the nerve transection site in the sacrifice of the mice. In order to reduce DMSO toxicity, a solution of 60 mg/mL zonisamide in 100% DMSO was prepared and the solution was diluted in olive oil to give a solution of 3 mg/mL zonisamide in 5% DMSO. The control solution (5% DMSO) or zonisamide (3 mg/mL×about 0.2 mL) at 30 mg/kg/day was administered to the stomach using a disposable probe needle (flexible type, Fuchigami) once a day for 1 to 8 weeks from the end of surgery until sacrifice. Myelin sheath formation in the sciatic nerve was analyzed in six mice in each group. One week after the sciatic nerve autologous transplantation, the sciatic nerve was transected at “the proximal transection site” and “the site 3 mm distal to the distal transection site” to excise a nerve segment with a length of 6 mm. […] The number and area of myelinated axons in the sciatic nerve were manually measured using ImageJ software in a blinded fashion. […] The mRNA expression levels of Bdnf, Ngf, Ntf4, Ntrk1, Ntrk2, Map2, Mapt, Gap43, Chrne, Colq, and Rapsn were quantified in a manner similar to Example 5.

[3] = 2 and 3 days after zonisamide addition

For `NS(=O)(=O)Cc1noc2ccccc12` [Zonisamide, 3-sulfamoylmethyl-1,2-benzisoxazole], which “number of living cells (MTS signal)” value (primary motor neurons) is on record?
Its value is “significantly increased”.

What about the “expression level of Bdnf” value [1] of the same compound?
The value was “unchanged”.

What about the “gene expression level of Ngf” value [1] of the same compound?
The value was “increased”.

And the “gene expression level of Ntf4” value [1]?
The value was “increased”.

What about the “mRNA level of Gap43” value [1] of the same compound?
Its value is “elevated”.

What about the “mRNA level of Map2” value [1] of the same compound?
Its value is “elevated”.

What about the “mRNA level of Mapt” value [1] of the same compound?
Its value is “elevated”.

What about the “mRNA level of Ntrk1” value [1] of the same compound?
The value was “increased”.

And the “mRNA level of Ntrk2” value [1]?
The value was “increased”.

And the “mRNA level of GAP43” value [2]?
Its value is “not increased until day 3”.

What about the “mRNA level of MAP2” value [2] of the same compound?
Its value is “not increased until day 3”.

And the “mRNA level of Mapt” value [2]?
The value was “not increased until day 3”.

And the “mRNA level of Ntrk1” value [2]?
The value was “increased”.

What about the “mRNA level of Ntrk2” value [2] of the same compound?
The value was “increased”.

What about the “mRNA level of BDNF” value [2, 3] of the same compound?
The value was “increased”.

What about the “mRNA level of NGF” value [2, 3] of the same compound?
Its value is “increased”.

What about the “mRNA level of NTF4” value [2, 3] of the same compound?
Its value is “increased”.

And the “phosphorylation level of JNK1/2/3” value (JNK1/2/3)?
The value was “slightly increased”.

And the “expression level of Chrne” value (Chrne, Colq, and Rapsn)?
Its value is “increased”.

And the “expression level of Colq” value (Chrne, Colq, and Rapsn)?
The value was “increased”.

And the “expression level of Rapsn” value (Chrne, Colq, and Rapsn)?
Its value is “increased”.
